Results as given in US4115585A, “Esters of 1-(p-hydroxyphenyl)-2-(1'-methyl-2'-phenoxyethylamino)-1-propanol” (Instituto Luso Farmaco d'Italia S.r.l., priority 1976, dated 1978).

Legend:
[1] = Hypotensive activity (variation in pressure 1 to 2 days after insertion of a catheter in the abdominal artery, technique of Weeks and Jones); type: in vivo
[2] = in vivo; details: rat, po
Description: According to the invention, esters I may be prepared by the esterification of the phenolic function of 1-(p-hydroxyphenyl)-2-(1'-methyl-2'-phenoxyethylamino)-1-propanol (II) with reactive derivatives like chlorides, bromides, and anhydrides of aliphatic acids of general formula III: [drawing 3] in which R1, R2, and R3 are as reported above. The esterification may be performed in an apolar solvent at reflux (such as benzene, toluene, or an analogous aromatic hydrocarbon) in the presence of an organic base like triethylamine, or in pyridine at room temperature.

Compound	Hypotensive Activity Recovery to 50% ([1]; dose 5 mg/Kg os)	Hypotensive Activity Recovery to 75% ([1]; dose 5 mg/Kg os)	Hypotensive Activity maximal pressure decrease ([1]; dose 5 mg/Kg os)	Hypotensive Activity Recovery to 50% ([1]; dose 10 mg/Kg os)	Hypotensive Activity Recovery to 75% ([1]; dose 10 mg/Kg os)	Hypotensive Activity maximal pressure decrease ([1]; dose 10 mg/Kg os)	Hypotensive Activity Recovery to 50% ([1]; dose 20 mg/Kg os)	Hypotensive Activity Recovery to 75% ([1]; dose 20 mg/Kg os)	Hypotensive Activity maximal pressure decrease ([1]; dose 20 mg/Kg os)	Hypotensive Activity Recovery to 50% ([1]; dose 40 mg/Kg os)	Hypotensive Activity Recovery to 75% ([1]; dose 40 mg/Kg os)	Hypotensive Activity maximal pressure decrease ([1]; dose 40 mg/Kg os)	Hypotensive Activity Recovery to 50% ([1]; dose 80 mg/Kg os)	Hypotensive Activity Recovery to 75% ([1]; dose 80 mg/Kg os)	Hypotensive Activity maximal pressure decrease ([1]; dose 80 mg/Kg os)	LD50 [2]
CC(COc1ccccc1)NC(C)C(O)c1ccc(O)cc1 (stereo not shown) [Isoxysuprine, 1-(p-hydroxyphenyl)-2-(1'-methyl-2'-phenoxyethylamino)-1-propanol]	8.0 ± 3.0 min	18.5 ± 6.5 min	24.5±11.5 mm Hg	79.8 ± 32.6 min	105.0 ± 42.9 min	25.3±3.6 mm Hg	46.4 ± 13.8 min	110.4 ± 29.4 min	28.7±4.9 mm Hg	34.0 ± 12.8 min	197.5 ± 59.5 min	21.8±2.1 mm Hg				
CC(COc1ccccc1)NC(C)C(O)c1ccc(OC(=O)C(C)(C)C)cc1 (stereo not drawn) [LR 693, 1-(p-α,α-dimethylpropionyloxyphenyl)-2-(1'-methyl-2'-phenoxyethylamino)-1-propanol]							29.0 ± 1.0 min	60.0 ± 20.0 min	9.0±1.0 mm Hg	115.7 ± 21.9 min	311.7 ± 34.2 min	21.3±4.1 mm Hg	180.2 ± 40.7 min	384.8 ± 71.0 min	18.8±8.0 mm Hg	> 5000 mg/kg
